According to ChEMBL document CHEMBL3621077, “Synthesis of hybrid anticancer agents based on kinase and histone deacetylase inhibitors” (Medchemcomm, 2014):
pIC50: −log10 of the molar value. Calls of active or inactive are those of the source. No cut-off for these calls is given here.

What was measured:
[1] = biological target: Mast/stem cell growth factor receptor Kit (Homo sapiens) (UniProt P10721); experiment: Inhibition of c-kit (unknown origin) at 10 uM
[2] = biological target: Vascular endothelial growth factor receptor 1 (Homo sapiens, UniProt P17948); experiment: Inhibition of VEGFR1 (unknown origin); conditions: read-out: IC50
[3] = biological target: Vascular endothelial growth factor receptor 2 (Homo sapiens, UniProt P35968); experiment: Inhibition of VEGFR2 (unknown origin); conditions: read-out: IC50
[4] = biological target: Platelet-derived growth factor receptor alpha (Homo sapiens, UniProt P16234); experiment: Inhibition of PDGFRa (unknown origin); conditions: read-out: IC50
Histone deacetylase 2 = Histone deacetylase 2 (Homo sapiens, UniProt Q92769)
Histone deacetylase 3 = Histone deacetylase 3 (Homo sapiens, UniProt O15379); experiment: Inhibition of HDAC3 (unknown origin)
Histone deacetylase 4 = Histone deacetylase 4 (Homo sapiens, UniProt P56524); experiment: Inhibition of HDAC4 (unknown origin)
Histone deacetylase 5 = Histone deacetylase 5 (Homo sapiens, UniProt Q9UQL6); experiment: Inhibition of HDAC5 (unknown origin); conditions: read-out: IC50
Histone deacetylase 8 = biological target: T1, Histone deacetylase 8 (Homo sapiens, UniProt Q9BY41); experiment: Inhibition of HDAC8 (unknown origin); conditions: read-out: IC50
T1 sequence (Q9BY41 whole entry): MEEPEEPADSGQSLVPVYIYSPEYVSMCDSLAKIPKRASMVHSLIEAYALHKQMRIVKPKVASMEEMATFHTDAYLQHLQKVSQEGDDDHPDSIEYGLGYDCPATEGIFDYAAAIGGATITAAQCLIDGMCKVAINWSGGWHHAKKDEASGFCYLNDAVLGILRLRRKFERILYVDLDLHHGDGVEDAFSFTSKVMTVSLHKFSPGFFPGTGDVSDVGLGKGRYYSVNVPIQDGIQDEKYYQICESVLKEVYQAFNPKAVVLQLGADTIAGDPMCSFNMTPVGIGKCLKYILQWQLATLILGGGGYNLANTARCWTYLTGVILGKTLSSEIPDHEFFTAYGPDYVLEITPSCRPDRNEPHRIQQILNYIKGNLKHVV

Xenopus laevis [5] = organism: Xenopus laevis; experiment: Inhibition of angiogenesis in Xenopus laevis embryo heart assessed as decrease in Egfl7 mRNA level at 10 to 100 uM at stage 9 incubated for 72 hrs until stage 38 measured by WISH method; format: functional, organism-based
Xenopus laevis [6] = organism: Xenopus laevis; experiment: Inhibition of angiogenesis in Xenopus laevis embryo heart assessed as effect on Egfl7 expression in intersomitic vessels at 100 uM at stage 9 incubated for 72 hrs until stage 38 measured by WISH method; format: functional, organism-based; conditions: Intersomitic vessel
Xenopus laevis [7] = organism: Xenopus laevis; experiment: Inhibition of angiogenesis in Xenopus laevis embryo heart assessed as reduction in tube formation at 100 uM at stage 9 incubated for 72 hrs until stage 38 measured by WISH method; format: functional, organism-based
CCRF-CEM = experiment: Cytotoxicity against human CCRF-CEM cells; format: functional
HL-60(TB) = experiment: Cytotoxicity against human HL-60(TB) cells; format: functional
K562 = experiment: Cytotoxicity against human K562 cells; format: functional
MOLT-4 = experiment: Cytotoxicity against human MOLT4 cells; format: functional
RPMI-8226 = experiment: Cytotoxicity against human RPMI8226 cells; format: functional
A549 = experiment: Cytotoxicity against human A549 cells; format: functional
HOP-62 = experiment: Cytotoxicity against human HOP62 cells; format: functional
HOP-92 = experiment: Cytotoxicity against human HOP92 cells; format: functional
NCI-H23 = experiment: Cytotoxicity against human NCI-H23 cells; format: functional
NCI-H322M = experiment: Cytotoxicity against human NCI-H322M cells; format: functional
NCI-H522 = experiment: Cytotoxicity against human NCI-H522 cells; format: functional
COLO 205 = experiment: Cytotoxicity against human COLO205 cells; format: functional
HCC 2998 = experiment: Cytotoxicity against human HCC2998 cells; format: functional
HCT-116 = experiment: Cytotoxicity against human HCT116 cells; format: functional
SW-620 = experiment: Cytotoxicity against human SW620 cells; format: functional
SF-268 = experiment: Cytotoxicity against human SF268 cells; format: functional
SF-295 = experiment: Cytotoxicity against human SF295 cells; format: functional
SF-539 = experiment: Cytotoxicity against human SF539 cells; format: functional
SNB-75 = experiment: Cytotoxicity against human SNB75 cells; format: functional
Malme-3M = experiment: Cytotoxicity against human MALME-3M cells; format: functional
M14 = experiment: Cytotoxicity against human M14 cells; format: functional
SK-MEL-2 = experiment: Cytotoxicity against human SK-MEL-2 cells; format: functional
SK-MEL-28 = experiment: Cytotoxicity against human SK-MEL-28 cells; format: functional
SK-MEL-5 = experiment: Cytotoxicity against human SK-MEL-5 cells; format: functional
UACC-62 = experiment: Cytotoxicity against human UACC62 cells; format: functional
IGROV-1 = experiment: Cytotoxicity against human IGROV1 cells; format: functional
OVCAR-4 = experiment: Cytotoxicity against human OVCAR4 cells; format: functional
OVCAR-8 = experiment: Cytotoxicity against human OVCAR8 cells; format: functional
[8] = Cytotoxicity against human NCI-ADR-RES cells; format: functional
SK-OV-3 = experiment: Cytotoxicity against human SKOV3 cells; format: functional
786-0 = experiment: Cytotoxicity against human 786-0 cells; format: functional
A498 = experiment: Cytotoxicity against human A498 cells; format: functional
ACHN = experiment: Cytotoxicity against human ACHN cells; format: functional
CAKI-1 = experiment: Cytotoxicity against human Caki1 cells; format: functional
RXF 393 = experiment: Cytotoxicity against human RXF393 cells; format: functional
SN12C = experiment: Cytotoxicity against human SN12C cells; format: functional
TK-10 = experiment: Cytotoxicity against human TK10 cells; format: functional
UO-31 = experiment: Cytotoxicity against human UO31 cells; format: functional
DU-145 = experiment: Cytotoxicity against human DU145 cells; format: functional
MCF7 = experiment: Cytotoxicity against human MCF7 cells; format: functional
BT-549 = experiment: Cytotoxicity against human BT549 cells; format: functional
T47D = experiment: Cytotoxicity against human T47D cells; format: functional
MDA-MB-468 = experiment: Cytotoxicity against human MDA-MB-468 cells; format: functional
Xenopus laevis [9] = organism: Xenopus laevis; conditions: at 10 to 100 µM

Platelet-derived growth factor receptor alpha, sequence (P16234 whole entry): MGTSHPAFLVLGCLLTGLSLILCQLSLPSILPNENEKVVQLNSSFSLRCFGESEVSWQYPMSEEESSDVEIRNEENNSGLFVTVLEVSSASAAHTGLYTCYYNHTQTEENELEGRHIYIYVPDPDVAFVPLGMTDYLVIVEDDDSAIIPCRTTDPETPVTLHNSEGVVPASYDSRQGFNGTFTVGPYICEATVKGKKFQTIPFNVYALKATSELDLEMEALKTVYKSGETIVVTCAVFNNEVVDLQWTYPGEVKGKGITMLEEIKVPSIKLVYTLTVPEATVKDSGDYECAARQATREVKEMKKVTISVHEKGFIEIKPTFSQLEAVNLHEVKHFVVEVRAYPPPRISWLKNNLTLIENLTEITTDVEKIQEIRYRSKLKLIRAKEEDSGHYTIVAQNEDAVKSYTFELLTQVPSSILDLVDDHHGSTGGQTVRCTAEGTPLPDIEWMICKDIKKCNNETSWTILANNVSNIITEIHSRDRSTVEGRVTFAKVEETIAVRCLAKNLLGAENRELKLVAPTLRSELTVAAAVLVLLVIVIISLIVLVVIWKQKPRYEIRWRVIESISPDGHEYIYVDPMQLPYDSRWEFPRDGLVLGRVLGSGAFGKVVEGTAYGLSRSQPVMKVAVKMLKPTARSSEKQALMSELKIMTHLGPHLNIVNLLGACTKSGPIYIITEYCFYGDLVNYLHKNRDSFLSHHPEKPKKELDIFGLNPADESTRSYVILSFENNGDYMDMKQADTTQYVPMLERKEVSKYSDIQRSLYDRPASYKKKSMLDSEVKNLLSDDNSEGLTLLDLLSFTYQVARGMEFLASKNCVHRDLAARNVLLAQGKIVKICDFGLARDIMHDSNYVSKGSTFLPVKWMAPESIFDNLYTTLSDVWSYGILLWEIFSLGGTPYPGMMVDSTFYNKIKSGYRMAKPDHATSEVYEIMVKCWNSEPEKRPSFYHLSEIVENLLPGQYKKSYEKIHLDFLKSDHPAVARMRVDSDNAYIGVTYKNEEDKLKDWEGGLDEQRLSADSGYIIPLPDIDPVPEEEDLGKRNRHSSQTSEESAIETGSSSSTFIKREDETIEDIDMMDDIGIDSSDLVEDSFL
Mast/stem cell growth factor receptor Kit (Homo sapiens), sequence (P10721 whole entry): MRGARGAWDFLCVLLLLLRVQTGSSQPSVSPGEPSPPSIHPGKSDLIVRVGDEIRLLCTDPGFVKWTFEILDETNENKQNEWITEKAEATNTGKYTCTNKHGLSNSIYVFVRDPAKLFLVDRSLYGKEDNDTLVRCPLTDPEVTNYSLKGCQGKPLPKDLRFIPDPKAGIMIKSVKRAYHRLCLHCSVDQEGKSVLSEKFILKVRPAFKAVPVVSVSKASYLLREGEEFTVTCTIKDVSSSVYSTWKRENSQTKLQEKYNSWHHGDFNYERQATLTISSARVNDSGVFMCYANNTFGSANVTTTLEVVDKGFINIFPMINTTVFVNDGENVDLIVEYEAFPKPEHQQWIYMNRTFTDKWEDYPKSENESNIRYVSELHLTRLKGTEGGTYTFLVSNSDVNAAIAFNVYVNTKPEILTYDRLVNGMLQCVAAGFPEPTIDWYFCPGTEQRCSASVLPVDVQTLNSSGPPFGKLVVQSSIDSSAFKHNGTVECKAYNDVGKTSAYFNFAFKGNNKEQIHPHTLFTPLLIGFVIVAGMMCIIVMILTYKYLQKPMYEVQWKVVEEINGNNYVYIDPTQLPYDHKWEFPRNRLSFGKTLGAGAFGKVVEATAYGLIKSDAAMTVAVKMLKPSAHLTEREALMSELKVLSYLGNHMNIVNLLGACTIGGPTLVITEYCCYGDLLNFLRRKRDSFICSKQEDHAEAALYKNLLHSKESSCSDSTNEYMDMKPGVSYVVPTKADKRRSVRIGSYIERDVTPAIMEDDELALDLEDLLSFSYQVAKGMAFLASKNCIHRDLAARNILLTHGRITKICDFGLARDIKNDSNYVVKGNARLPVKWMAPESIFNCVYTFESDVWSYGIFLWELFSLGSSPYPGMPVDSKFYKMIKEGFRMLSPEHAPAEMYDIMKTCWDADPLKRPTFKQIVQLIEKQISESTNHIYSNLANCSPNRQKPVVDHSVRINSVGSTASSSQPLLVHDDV
Histone deacetylase 4, sequence (P56524 whole entry): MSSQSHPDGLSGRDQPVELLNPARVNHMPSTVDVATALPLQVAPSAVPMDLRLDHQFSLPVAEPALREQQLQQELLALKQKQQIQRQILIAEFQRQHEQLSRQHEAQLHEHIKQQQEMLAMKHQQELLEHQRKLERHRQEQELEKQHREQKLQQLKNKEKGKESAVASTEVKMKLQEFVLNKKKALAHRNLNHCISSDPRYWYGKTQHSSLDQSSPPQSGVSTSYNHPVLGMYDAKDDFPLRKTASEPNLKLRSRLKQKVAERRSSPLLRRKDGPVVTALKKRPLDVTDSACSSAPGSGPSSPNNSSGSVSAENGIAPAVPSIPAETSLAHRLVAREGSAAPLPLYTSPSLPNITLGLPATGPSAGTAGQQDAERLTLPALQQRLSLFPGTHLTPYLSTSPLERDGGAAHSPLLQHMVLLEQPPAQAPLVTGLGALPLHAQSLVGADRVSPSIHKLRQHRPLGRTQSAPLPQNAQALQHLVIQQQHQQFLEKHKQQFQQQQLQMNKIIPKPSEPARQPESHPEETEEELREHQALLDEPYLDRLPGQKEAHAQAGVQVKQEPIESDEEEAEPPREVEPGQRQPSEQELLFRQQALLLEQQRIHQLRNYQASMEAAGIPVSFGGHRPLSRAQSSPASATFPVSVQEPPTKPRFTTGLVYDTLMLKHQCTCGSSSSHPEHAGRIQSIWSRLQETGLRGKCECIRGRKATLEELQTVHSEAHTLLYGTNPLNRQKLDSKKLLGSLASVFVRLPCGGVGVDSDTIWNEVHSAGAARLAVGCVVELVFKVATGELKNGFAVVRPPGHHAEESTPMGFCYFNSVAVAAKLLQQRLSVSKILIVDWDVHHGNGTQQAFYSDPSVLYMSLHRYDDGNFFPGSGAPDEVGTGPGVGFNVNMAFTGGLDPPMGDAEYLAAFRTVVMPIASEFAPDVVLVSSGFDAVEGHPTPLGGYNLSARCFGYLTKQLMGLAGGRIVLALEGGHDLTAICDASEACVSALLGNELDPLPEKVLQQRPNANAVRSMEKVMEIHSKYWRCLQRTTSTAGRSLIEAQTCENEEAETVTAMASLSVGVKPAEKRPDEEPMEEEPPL
Histone deacetylase 2, sequence (Q92769 whole entry): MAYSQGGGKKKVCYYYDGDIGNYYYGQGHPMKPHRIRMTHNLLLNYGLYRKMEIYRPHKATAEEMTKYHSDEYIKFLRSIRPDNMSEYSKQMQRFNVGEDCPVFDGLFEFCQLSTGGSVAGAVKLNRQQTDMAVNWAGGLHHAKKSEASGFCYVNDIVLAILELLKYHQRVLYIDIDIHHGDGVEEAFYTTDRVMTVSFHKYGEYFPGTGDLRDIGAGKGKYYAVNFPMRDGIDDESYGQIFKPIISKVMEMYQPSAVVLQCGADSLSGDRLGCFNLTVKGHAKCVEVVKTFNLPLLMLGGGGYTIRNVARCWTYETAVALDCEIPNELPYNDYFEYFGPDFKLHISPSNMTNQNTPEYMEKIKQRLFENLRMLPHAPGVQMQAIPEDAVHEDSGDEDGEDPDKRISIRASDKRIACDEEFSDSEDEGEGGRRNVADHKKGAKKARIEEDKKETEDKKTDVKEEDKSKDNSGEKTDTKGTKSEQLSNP
Histone deacetylase 5, sequence (Q9UQL6 whole entry): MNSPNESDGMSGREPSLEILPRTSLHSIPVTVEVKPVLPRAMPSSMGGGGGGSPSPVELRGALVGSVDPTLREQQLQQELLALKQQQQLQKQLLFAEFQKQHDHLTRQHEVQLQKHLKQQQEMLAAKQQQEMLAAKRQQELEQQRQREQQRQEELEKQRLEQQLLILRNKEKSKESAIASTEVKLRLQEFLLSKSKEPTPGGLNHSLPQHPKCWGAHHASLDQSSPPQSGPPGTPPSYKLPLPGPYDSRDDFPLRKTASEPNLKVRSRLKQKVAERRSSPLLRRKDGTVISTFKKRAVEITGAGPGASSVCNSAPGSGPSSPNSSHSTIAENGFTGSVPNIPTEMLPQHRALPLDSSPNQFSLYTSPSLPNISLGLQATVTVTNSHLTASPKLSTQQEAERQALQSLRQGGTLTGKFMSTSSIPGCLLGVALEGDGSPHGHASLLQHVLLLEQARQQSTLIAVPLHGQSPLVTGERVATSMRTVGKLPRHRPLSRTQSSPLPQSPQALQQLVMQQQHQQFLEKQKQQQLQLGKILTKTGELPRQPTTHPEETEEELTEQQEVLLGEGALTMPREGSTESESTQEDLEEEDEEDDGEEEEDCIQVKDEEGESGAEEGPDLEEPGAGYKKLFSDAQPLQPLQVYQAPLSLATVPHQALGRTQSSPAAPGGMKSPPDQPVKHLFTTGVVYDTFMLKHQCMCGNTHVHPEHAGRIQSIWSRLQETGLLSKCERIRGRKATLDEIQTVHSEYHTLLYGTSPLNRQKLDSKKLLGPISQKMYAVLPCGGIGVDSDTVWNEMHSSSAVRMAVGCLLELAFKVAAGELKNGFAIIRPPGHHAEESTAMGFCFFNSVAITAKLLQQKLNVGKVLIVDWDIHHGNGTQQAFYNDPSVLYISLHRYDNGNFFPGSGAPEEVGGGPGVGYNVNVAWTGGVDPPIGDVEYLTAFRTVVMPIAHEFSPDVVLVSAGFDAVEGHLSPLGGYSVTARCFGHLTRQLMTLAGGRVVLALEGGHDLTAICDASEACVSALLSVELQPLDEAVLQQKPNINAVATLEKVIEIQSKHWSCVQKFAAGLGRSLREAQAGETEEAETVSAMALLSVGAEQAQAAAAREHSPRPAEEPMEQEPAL

Compound: O=C(CCCCCCC(=O)Nc1ccc2c(c1)/C(=C/c1ccc[nH]1)C(=O)N2)NO
- inhibition [1]: inactive
- pIC50 [2]: 6.44
- pIC50 [3]: 6.63
- pIC50 [4]: 5.93
- pIC50 (Histone deacetylase 2): 8.95
- pIC50 (Histone deacetylase 3): 9.17
- IC50 (Histone deacetylase 4): Not Active
- pIC50 (Histone deacetylase 5): 6.07
- pIC50 (Histone deacetylase 8): 7.22
- inhibition (Xenopus laevis [5]): Active
- inhibition (Xenopus laevis [6]): inactive
- Activity (Xenopus laevis [7]): inactive
- GI50 (CCRF-CEM): 0.102 µM
- GI50 (HL-60(TB)): 0.477 µM
- GI50 (K562): 0.251 µM
- GI50 (MOLT-4): 0.302 µM
- GI50 (RPMI-8226): 2.92 µM
- GI50 (A549): 2.91 µM
- GI50 (HOP-62): 0.381 µM
- GI50 (HOP-92): 0.412 µM
- GI50 (NCI-H23): 1.32 µM
- GI50 (NCI-H322M): 1.02 µM
- GI50 (NCI-H522): 0.087 µM
- GI50 (COLO 205): 0.248 µM
- GI50 (HCC 2998): 1.64 µM
- GI50 (HCT-116): 0.238 µM
- GI50 (SW-620): 0.275 µM
- GI50 (SF-268): 1.19 µM
- GI50 (SF-295): 1.31 µM
- GI50 (SF-539): 0.605 µM
- GI50 (SNB-75): 0.194 µM
- GI50 (Malme-3M): 0.086 µM
- GI50 (M14): 0.489 µM
- GI50 (SK-MEL-2): 0.989 µM
- GI50 (SK-MEL-28): 0.406 µM
- GI50 (SK-MEL-5): 0.243 µM
- GI50 (UACC-62): 0.301 µM
- GI50 (IGROV-1): 0.167 µM
- GI50 (OVCAR-4): 1.27 µM
- GI50 (OVCAR-8): 0.499 µM
- GI50 [8]: 4 µM
- GI50 (SK-OV-3): 0.363 µM
- GI50 (786-0): 2.4 µM
- GI50 (A498): 0.365 µM
- GI50 (ACHN): 1.15 µM
- GI50 (CAKI-1): 2.33 µM
- GI50 (RXF 393): 0.518 µM
- GI50 (SN12C): 2.19 µM
- GI50 (TK-10): 0.795 µM
- GI50 (UO-31): 0.775 µM
- GI50 (DU-145): 1.02 µM
- GI50 (MCF7): 0.44 µM
- GI50 (BT-549): 1.95 µM
- GI50 (T47D): 0.045 µM
- GI50 (MDA-MB-468): 0.194 µM
- inhibition (Xenopus laevis [9]): Active
